Experimental findings from ChEMBL document CHEMBL1949590, “Discovery of a novel class of orally active trypanocidal N-myristoyltransferase inhibitors” (J Med Chem, 2012) are described below.

Each structure is given as a SMILES string. Calls of active or inactive are those of the source. No cut-off for these calls is given here. A value given as a limit tells only on which side of the number the result lay.

As a reminder, the pKa is the negative logarithm of the acid dissociation constant. Low readings indicate a stronger acid or weaker base, high ones a weaker acid or stronger base. For orientation: fraction unbound means the share of the substance not bound to proteins or other matrix. As a reminder, the IC50 is the concentration that gives 50% inhibition. A high value points to a need for much substance. As a reminder, the EC50 is the concentration at which the effect is half-maximal. A higher EC50 goes with weaker potency.

Test system in the first series: not listed separately
Kind of series: Dissociation constant, pKa of the compound. It is filed as physicochemical.
Details: not given
`Cc1nn(C)c(C)c1NS(=O)(=O)c1ccc(NCCCn2ccnc2)nc1`: the pKa worked out at 7.1.

Compound `Cc1nn(C)c(C)c1NS(=O)(=O)c1ccc(NCCN2CCN(C)CC2)nc1` returned a pKa of 7.9.

Compound `Cc1nn(C)c(C)c1NS(=O)(=O)c1ccc(NCCC2CCN(C)CC2)nc1` had a pKa of 9.6.

Regarding `Cc1nn(C)c(C)c1NS(=O)(=O)c1ccc(NCCN2CCNCC2)nc1`, the pKa was 9.3.

The next series has as its system Trypanosoma brucei brucei. The experiment in a line: Antitrypanosomal activity against Trypanosoma brucei brucei GVR35 infected in NMRI mouse assessed as increase in survival time at 100 mg/kg, po bid administered on day 21 post infection for 5 days after 21 days relative to control. It is filed as functional, organism-based. Also noted: dose 100 mg/kg.
Details: not given
Regarding `Cc1nn(C)c(C)c1NS(=O)(=O)c1c(Cl)cc(-c2ccnc(N3CCNCC3)c2)cc1Cl` [listing 1 of 2 here], the Survival result is “inactive”.

Test system in a further series: not listed separately
The experiment in a line: Fraction unbound in mouse plasma. The format is ADME, cell-free.
Details: not given
As to `Cc1nn(C)c(C)c1NS(=O)(=O)c1c(Cl)cc(-c2ccnc(N3CCNCC3)c2)cc1Cl` [listing 2 of 2 here], the fraction unbound was determined as 0.11.

A further series has as its target T1, Glycylpeptide N-tetradecanoyltransferase 1 (Homo sapiens, UniProt P30419).
T1 sequence (P30419 whole entry): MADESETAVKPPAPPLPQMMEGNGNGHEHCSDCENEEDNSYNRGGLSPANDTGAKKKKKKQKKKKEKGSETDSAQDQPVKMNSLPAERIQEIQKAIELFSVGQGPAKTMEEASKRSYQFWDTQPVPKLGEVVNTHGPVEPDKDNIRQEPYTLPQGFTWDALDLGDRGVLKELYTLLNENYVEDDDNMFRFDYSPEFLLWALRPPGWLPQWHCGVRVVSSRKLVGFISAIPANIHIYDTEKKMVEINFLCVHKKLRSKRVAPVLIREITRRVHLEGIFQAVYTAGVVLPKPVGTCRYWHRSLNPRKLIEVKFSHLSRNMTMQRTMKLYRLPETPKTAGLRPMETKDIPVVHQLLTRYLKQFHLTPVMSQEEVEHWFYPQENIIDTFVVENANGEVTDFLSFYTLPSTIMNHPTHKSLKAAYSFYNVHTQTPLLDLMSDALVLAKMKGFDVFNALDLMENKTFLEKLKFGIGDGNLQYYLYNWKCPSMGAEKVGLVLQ
Details: not given
On to `Cc1nn(C)c(C)c1NS(=O)(=O)c1ccc(NCCCn2ccnc2)nc1`, for which it took 8.7 µM to reach half-maximal inhibition (IC50).

`Cc1nn(C)c(C)c1NS(=O)(=O)c1ccc(N2CCC(N3CCNCC3)C2)nc1` (stereo not given) showed a 50% inhibitory concentration (IC50) of 1.6 µM.

Take `Cc1nn(C)c(C)c1NS(=O)(=O)c1ccc(NCc2ccc3[nH]ccc3c2)nc1`: 2.7 µM corresponded to half-maximal inhibition (IC50).

For the compound `Cc1nn(C)c(C)c1NS(=O)(=O)c1ccc(NCCN2CCN(c3ccccc3)CC2)nc1`, the 50% inhibitory concentration (IC50) is more than 1 µM.

For the compound `Cc1nn(C)c(C)c1NS(=O)(=O)c1c(Cl)cc(-c2ccc(CN3CCN(C)CC3)cc2)cc1Cl`, the IC50 stood at 4.2 µM.

Compound `Cc1nn(C)c(C)c1NS(=O)(=O)c1ccc(NCCN2CCN(C(C)C)CC2)nc1` came in with a 50% inhibitory concentration (IC50) of more than 1 µM.

As to `Cc1nn(C)c(C)c1NS(=O)(=O)c1ccc(NCCN2CCN(C(=O)OC(C)(C)C)CC2)nc1`, the concentration for half-maximal inhibition (IC50) is more than 10 µM.

The compound `Cc1nn(C)c(C)c1NS(=O)(=O)c1ccc(Cl)nc1` came in with a half-inhibitory concentration (IC50) of more than 100 µM.

`Cc1nn(C)c(C)c1NS(=O)(=O)c1ccc(NCCCN2CCN(C)CC2)nc1` gave an IC50 of 2.4 µM.

For the compound `Cc1nn(C)c(C)c1NS(=O)(=O)c1c(Cl)cc(-c2cccc3cnccc23)cc1Cl`, the IC50 was more than 100 µM.

As to `Cc1nn(C)c(C)c1NS(=O)(=O)c1c(Cl)cc(-c2cccc3c2CCNC3)cc1Cl`, the half-inhibitory concentration (IC50) amounted to 4.3 µM.

As for `Cc1nn(C)c(C)c1NS(=O)(=O)c1ccc(NCCN2CCN(Cc3ccccc3)CC2)nc1`, the IC50 is more than 10 µM.

For a further series, the system named is Trypanosoma brucei brucei. Kind of series: Antitrypanosomal activity against Trypanosoma brucei brucei GVR35 infected in NMRI mouse assessed as increase in survival time at 20 mg/kg, ip qd for 5 days measured after 180 days. The format is functional. Conditions: route intraperitoneal.
As to `Nc1nc(N)nc(Nc2ccc([As]3SCC(CO)S3)cc2)n1` (stereo not given) [MELARSOPROL], the survival at 20 mg/kg worked out at 100%.

A further series relates to Trypanosoma brucei. Kind of series: Antimicrobial activity against blood stream form Trypanosoma brucei BSF427 expressing VSG118 after 69 hrs by resazurin-based fluorescent assay. It is filed as functional, organism-based. Conditions: BSF427, 69 h. (Alamar Blue is a resazurin reagent that responds to reducing activity.)
Compound `Cc1nn(C)c(C)c1NS(=O)(=O)c1c(Cl)cc(-c2ccc(CN3CCN(C)CC3)cc2)cc1Cl` came in with a concentration for a half-maximal effect (EC50) of 3.6 µM.
